Reference: patent US11419869B2, “Dosage forms and regimens for amino acid compounds” (Pliant Therapeutics, Inc., priority 2019, dated 2022)

Target: recombinant human integrin αvβ6 (Homo sapiens (Human), UniProt P06756+P18564)
Experiment: Solid Phase Integrin αvβ6 Binding Assay (Examples B1, B2)
Details: TGFβ1 LAP ligand, values given in four ranges, read-out: αvβ6 Inhibition IC50 (nM)-range
How it was run: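 Plates coated with recombinant human αvβ6 (2 μg/mL) compete compound against recombinant TGFβ1 LAP (0.67 μg/mL) in TBS binding buffer with 0.5 mM MnCl2, 2 h at 25 °C. Bound LAP detected with biotin-anti-hLAP and peroxidase-streptavidin; IC50 by four-parameter logistic regression.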

Sequence of recombinant human integrin αvβ6 (P06756 31-992): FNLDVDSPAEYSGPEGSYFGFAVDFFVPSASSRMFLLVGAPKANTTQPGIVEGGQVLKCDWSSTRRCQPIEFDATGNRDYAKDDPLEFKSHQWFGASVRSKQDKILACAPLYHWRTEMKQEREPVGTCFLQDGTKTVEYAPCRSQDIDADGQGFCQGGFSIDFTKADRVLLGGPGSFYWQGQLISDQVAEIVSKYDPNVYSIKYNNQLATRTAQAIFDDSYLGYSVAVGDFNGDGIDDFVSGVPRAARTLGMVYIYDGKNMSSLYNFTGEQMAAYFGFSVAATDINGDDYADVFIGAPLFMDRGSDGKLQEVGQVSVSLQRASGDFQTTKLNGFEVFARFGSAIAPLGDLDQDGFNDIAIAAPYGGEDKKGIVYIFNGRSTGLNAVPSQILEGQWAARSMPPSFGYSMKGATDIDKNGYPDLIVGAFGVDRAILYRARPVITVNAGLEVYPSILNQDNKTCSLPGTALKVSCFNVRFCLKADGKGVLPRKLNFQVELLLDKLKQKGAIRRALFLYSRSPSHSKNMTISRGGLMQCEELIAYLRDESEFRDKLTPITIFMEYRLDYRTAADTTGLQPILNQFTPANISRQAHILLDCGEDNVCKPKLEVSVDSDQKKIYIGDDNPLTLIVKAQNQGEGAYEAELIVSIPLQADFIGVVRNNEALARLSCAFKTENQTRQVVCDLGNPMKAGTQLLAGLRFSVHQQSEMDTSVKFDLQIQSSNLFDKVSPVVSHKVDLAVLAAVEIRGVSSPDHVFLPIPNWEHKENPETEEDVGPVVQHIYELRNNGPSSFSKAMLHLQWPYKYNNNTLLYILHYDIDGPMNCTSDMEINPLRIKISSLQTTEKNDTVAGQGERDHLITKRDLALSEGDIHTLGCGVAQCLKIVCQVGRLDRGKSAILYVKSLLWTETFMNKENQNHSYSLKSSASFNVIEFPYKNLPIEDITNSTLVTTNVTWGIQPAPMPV
Sequence of recombinant human integrin αvβ6 (P18564 22-707): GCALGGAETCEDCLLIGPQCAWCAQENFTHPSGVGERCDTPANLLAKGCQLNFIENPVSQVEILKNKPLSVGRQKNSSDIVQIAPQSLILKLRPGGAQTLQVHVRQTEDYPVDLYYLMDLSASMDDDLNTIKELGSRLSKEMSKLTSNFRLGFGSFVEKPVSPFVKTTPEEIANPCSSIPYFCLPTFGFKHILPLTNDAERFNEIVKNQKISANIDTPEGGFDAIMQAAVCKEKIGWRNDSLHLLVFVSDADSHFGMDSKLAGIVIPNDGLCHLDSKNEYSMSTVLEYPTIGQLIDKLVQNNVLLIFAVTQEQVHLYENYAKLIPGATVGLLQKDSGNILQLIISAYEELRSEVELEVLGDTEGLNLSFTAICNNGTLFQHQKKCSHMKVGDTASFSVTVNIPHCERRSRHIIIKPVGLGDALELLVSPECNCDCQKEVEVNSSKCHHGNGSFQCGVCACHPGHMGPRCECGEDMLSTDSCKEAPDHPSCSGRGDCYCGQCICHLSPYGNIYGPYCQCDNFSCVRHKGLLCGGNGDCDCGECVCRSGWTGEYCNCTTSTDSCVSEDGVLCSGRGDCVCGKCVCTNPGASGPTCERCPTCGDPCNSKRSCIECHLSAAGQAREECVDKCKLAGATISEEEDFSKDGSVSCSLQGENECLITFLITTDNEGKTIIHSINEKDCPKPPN

Compound	IC50
CO[C@H](C)CN(CCCCc1ccc2c(n1)NCCC2)CC[C@H](Nc1ccnc(C(F)(F)F)n1)C(=O)O [Compound 72, (S)-4-(((R)-2-methoxypropyl) (4-(5,6,7,8-tetrahydro-1,8-naphthyridin-2-yl)butyl)amino)-2-((2-(trifluoromethyl)pyrimidin-4-yl)amino) butanoic acid]	< 50 nM
O=C(O)[C@H](CCN(CCO)CCCCc1ccc2c(n1)NCCC2)Nc1ncnc2ccccc12 [Compound 75, (S)-4-((2-hydroxyethyl) (4-(5,6,7,8-tetrahydro-1,8-naphthyridin-2-yl)butyl)amino)-2-(quinazolin-4-ylamino) butanoic acid]	< 50 nM
CO[C@H](C)CN(CCCCc1ccc2c(n1)NCCC2)CC[C@H](Nc1nccnc1C#N)C(=O)O [Compound 76, (S)-2-((3-cyanopyrazin-2-yl)amino)-4-(((R)-2-methoxypropyl) (4-(5,6,7,8-tetrahydro-1,8-naphthyridin-2-yl)butyl)amino) butanoic acid]	< 50 nM
CO[C@H](C)CN(CCCCc1ccc2c(n1)NCCC2)CC[C@H](Nc1ncc(F)cn1)C(=O)O [Compound 78, (S)-2-((5-fluoropyrimidin-2-yl)amino)-4-(((R)-2-methoxypropyl) (4-(5,6,7,8-tetrahydro-1,8-naphthyridin-2-yl)butyl)amino) butanoic acid]	< 50 nM
CO[C@H](C)CN(CCCCc1ccc2c(n1)NCCC2)CC[C@H](Nc1ncnc2cn[nH]c12)C(=O)O [Compound 79, (S)-2-((1H-pyrazolo[4,3-d]pyrimidin-7-yl)amino)-4-(((R)-2-methoxypropyl) (4-(5,6,7,8-tetrahydro-1,8-naphthyridin-2-yl)butyl)amino) butanoic acid]	< 50 nM

Continued, values first:

IC50	Compound
< 50 nM	CO[C@H](C)CN(CCCCc1ccc2c(n1)NCCC2)CC[C@H](Nc1ncc(Br)cn1)C(=O)O [Compound 70, (S)-2-((5-bromopyrimidin-2-yl)amino)-4-(((R)-2-methoxypropyl) (4-(5,6,7,8-tetrahydro-1,8-naphthyridin-2-yl)butyl)amino) butanoic acid]
< 50 nM	CO[C@H](C)CN(CCCCc1ccc2c(n1)NCCC2)CC[C@H](Nc1ncnc2[nH]ncc12)C(=O)O [Compound 71, (S)-2-((1H-pyrazolo[3,4-d]pyrimidin-4-yl)amino)-4-(((R)-2-methoxypropyl) (4-(5,6,7,8-tetrahydro-1,8-naphthyridin-2-yl)butyl)amino) butanoic acid]
< 50 nM	CO[C@H](C)CN(CCCCc1ccc2c(n1)NCCC2)CC[C@H](Nc1ccnc(-c2ccccc2)n1)C(=O)O [Compound 73, (S)-4-(((R)-2-methoxypropyl) (4-(5,6,7,8-tetrahydro-1,8-naphthyridin-2-yl)butyl)amino)-2-((2-phenylpyrimidin-4-yl)amino) butanoic acid]
< 50 nM	CO[C@H](C)CN(CCCCc1ccc2c(n1)NCCC2)CC[C@H](Nc1ncnc2c1cnn2C)C(=O)O [Compound 74, (S)-4-(((R)-2-methoxypropyl) (4-(5,6,7,8-tetrahydro-1,8-naphthyridin-2-yl)butyl)amino)-2-((1-methyl-1H-pyrazolo[3,4-d]pyrimidin-4-yl)amino) butanoic acid]
< 50 nM	CO[C@H](C)CN(CCCCc1ccc2c(n1)NCCC2)CC[C@H](Nc1cc(-n2cccn2)ncn1)C(=O)O [Compound 77, (S)-2-((6-(1H-pyrazol-1-yl)pyrimidin-4-yl)amino)-4-(((R)-2-methoxypropyl) (4-(5,6,7,8-tetrahydro-1,8-naphthyridin-2-yl)butyl)amino) butanoic acid]
< 50 nM	CO[C@H](C)CN(CCCCc1ccc2c(n1)NCCC2)CC[C@H](Nc1cc(-c2ccccc2)ncn1)C(=O)O [Compound 80, (S)-4-(((R)-2-methoxypropyl) (4-(5,6,7,8-tetrahydro-1,8-naphthyridin-2-yl)butyl)amino)-2-((6-phenylpyrimidin-4-yl)amino) butanoic acid]
